Assay results published in USRE37828E1, “Treatment and prevention of adhesions” (Hadasit Medical Research Services & Development Co., Ltd., priority 1997, dated 2002).
Where “and” joins values, the source holds several entries; their conditions need not be identical. Equal values may be shown once.

Experiments:
peritoneal adhesions = conditions: rats, cited from earlier work
[1] = ascribed to effects on many collagen types and Fe++ ion-binding enzymes; cited from earlier work
adhesions = conditions: infertility surgery, gynecological surgeons; cited from earlier work
alkaline phosphatase = assay: Alkaline phosphatase activity in tissue sections after abdominal surgery; format: in vivo; conditions: rats with surgery injected with Halofuginone, 21 days; FIG. 3C
Protocol: For hybridization with the genetic probe, the sections were deparafinized in xylene, rehydrated through a graded series of ethanol solutions, rinsed in distilled water for 5 minutes and then incubated in 2×SSC [What is the recipe?] at 70° C. for 30 minutes. The sections were then rinsed in distilled water and treated with pronase, 0.125 mb/ml in 50 mM Tris-HCl, 5 mM EDTA, pH 7.5 for 10 minutes. After digestion, the slides were rinsed with distilled water, post-fixed in 10% formalin in PBS and blocked in 0.2% glycine. After blocking, the slides were rinsed in distilled water, rapidly dehydrated through graded ethanol solutions and air-dried for several hours. Before hybridization, the 1600 bp rat collagen α1(I) insert was cut out from the original plasmid, pUC18, and inserted into the pSafyre plasmid. The sections were then hybridized with this probe after digoxigenin-labelling. Alkaline phosphatase activity was detected in the sections as previously described [Knopov, V., et al., Bone, Vol 16 p. 329S-334S, 1995].
After 21 days, tissue samples were taken from all three groups of rats and histological sections were prepared as described in Example 1, and alkaline phosphatase activity was measured as described in Example 1.

collagen type I [2] = assay: Collagen α1(I) gene expression and collagen type I content in surgically insulted abdominal tissue (in situ hybridization, Sirius red); format: in vivo; conditions: rats with surgery, Halofuginone i.p. daily for 21 days
Protocol: (§1) The experiments were performed as follows. First, the abdomen of the rats was shaved and prepared with iodine and alcohol. The abdominal cavity was entered through a mid-line incision. The small intestine was scraped from the duodenum down to from about 9 to about 10 cm from the cecum, until capillary bleeding occurred. To avoid drying, Hartman's solution at about 37° C. was occasionally dripped on the intestine. After replacement of the intestine into the abdominal cavity, the abdomen was closed in two layers with continuous 00 chromic catgut suture. […] Res., Vol 17, p. 254-258, 1985]. After 21 days, the rats were sacrificed and the sutures were reopened to determine the level of adhesion formation and to take biopsies of the tissue.
The tissue was sectioned so that histological studies could be performed. Briefly, the tissue samples were collected into phosphate-buffered saline (PBS) and fixed overnight in 4% paraformaldehyde in PBS at 4° C. Serial 5 μm sections were prepared after the samples had been dehydrated in graded ethanol solutions, cleared in chloroform and embedded in Paraplast. Differential staining of collagenous and non-collagenous proteins were performed with 0.1% Sirius red and 0.1% fast green as a counter-stain in picric acid. This procedure stains collagen red [Gascon-Barre, M., et al., J. Histochem. Cytochem., Vol 37, p. 377-381, 1989].
For hybridization with the genetic probe, the sections were deparafinized in xylene, rehydrated through a graded series of ethanol solutions, rinsed in distilled water for 5 minutes and then incubated in 2×SSC [What is the recipe?] at 70° C. for 30 minutes. The sections were then rinsed in distilled water and treated with pronase, 0.125 mb/ml in 50 mM Tris-HCl, 5 mM EDTA, pH 7.5 for 10 minutes. […] Alkaline phosphatase activity was detected in the sections as previously described [Knopov, V., et al., Bone, Vol 16 p. […]
After 21 days, tissue samples were taken for histological analysis as described above. Both collagen type I content of the tissue, and the level of collagen a(1)I gene expression were measured.

[3] = set-up: species or system rats; conditions: rat, in vivo, ip
Protocol: The experiment was performed as follows. Abdominal adhesions were induced in two groups of rats as described above in Example 1. […] One group of the rats which underwent surgery received an i.p. injection of Halofuginone every day after the operation for 21 days. The rats were dosed according to body weight, with 1 ug of Halofuginone given per 25 g of body weight. The other group of rats which underwent surgery received saline injections for 21 days.
Two different tests were performed to assess the effect of Halofuginone on the number and severity of adhesions in rats which underwent surgery. […] The experimental method was as follows. For the first test, three groups of rats were prepared as described above in Example 2. At the end of 21 days, the rats were weighed and the number and severity of adhesions were determined according to a double-blind procedure.

skin wound [4] = assay: Wound healing and collagen content of skin wounds in irradiated and non-irradiated mice; format: in vivo, C3H mice; conditions: Halofuginone 1 μg/mouse i.p. every other day, 14 days
Protocol: The experiment was conducted as follows. First C3H, defined-flora, pathogen-free female mice of 12-14 weeks of age were anesthetized with 60 mg/kg sodium phenobarbital. The mice were then shaved. One group of mice was then irradiated as follows. First, a flap of skin about 40 mm long and about 20 mm wide was pulled through a slit in the lead cover of an irradiation jig and secured with tape, so that only the flap of skin was exposed. This exposed skin was then irradiated by using a 175 kVp/20 mA orthovoltage X-ray source, with a 2 mm Cu filter at a dose rate of 1.0 Gy/min. A standard dose of 18 Gy was delivered.
All of the mice were then wounded by making a fill depth incision, about 25 mm long, in the skin along the midline of the lower back. Note that for the irradiated animals, the wound was made within the irradiated area, immediately following irradiation. For all mice, the incision was immediately closed by 3-4 metallic wound closure clips which were removed 2 days later.
After wounding, the mice were injected i.p every other day, either with 1 μg/mouse Halofuginone or with saline as a control. After 14 days, 2 days following the last injection, the mice were sacrificed and skin samples were collected into phosphate-buffered saline (PBS) and fixed in 4% paraformaldehyde in PBS at 4° C. […]

skin wound [5] = assay: Wound strength (bursting point of skin strips, Instron tensiometer); format: in vivo, rats; conditions: irradiated or non-irradiated animals, one or six injections of Halofuginone; FIG. 5
Protocol: Wound strength was assessed by preparing rats substantially as described above, except that one group of rats (not irradiated) only received one injection of Halofuginone after wounding. The strength of wounds was measured as follows. First, a square of skin which was approximately 20 mm long and 16 mm wide, and which included the main part of the wound, was excised from sacrificed rats. Next, the skin was cut, perpendicular to the wound, to yield 7 strips of skin, each of which was 2 mm wide. The skin strips were secured between paper reinforcement frames and loaded on an Instron tensiometer for stretching at a constant rate of 25 mm/min. The bursting point was then recorded.

abdominal adhesions [6] = assay: Post-surgical abdominal adhesions in rats, Halofuginone i.p. injection: number and severity of adhesions; format: in vivo; set-up: key to Adhesion Score: 0=no adhesions; I=a thin, filmy, easily separated adhesion; II=several thin adhesions; III=a thick, broad adhesion; IV=several thick adhesions
Protocol: as §1
The experiment was performed as follows. Abdominal adhesions were induced in two groups of rats as described above in Example 1. […] One group of the rats which underwent surgery received an i.p. injection of Halofuginone every day after the operation for 21 days. The rats were dosed according to body weight, with 1 ug of Halofuginone given per 25 g of body weight. […]
Two different tests were performed to assess the effect of Halofuginone on the number and severity of adhesions in rats which underwent surgery. […] At the end of 21 days, the rats were weighed and the number and severity of adhesions were determined according to a double-blind procedure. […]

[7] = set-up: species or system rats; conditions: rat, in vivo
Protocol: (§2) In the second experiment, Halofuginone was administered in the diet of two groups of rats at a concentration of 5 mg/kg dry feed for 4 days before surgery, as a pretreatment. Two other groups of rats were fed a normal diet and served as control groups. One of the groups of rats fed Halofuginone and one control group the underwent surgery as described above. Halofuginone treatment was continued for 21 days following surgery, after which the rats were sacrificed and the number and severity of adhesions were determined, and body weight was measured.

collagen type I [8] = conditions: cited from earlier work
abdominal adhesions [9] = assay: Post-surgical abdominal adhesions in rats, Halofuginone in the diet: number and severity of adhesions; format: in vivo; set-up: key to Adhesion: 0=no adhesions; I=a thin, filmy, easily separated adhesion; II=several thin adhesions; III=a thick, broad adhesion; IV=several thick adhesions; conditions: for Adhesion: one rat per row
Protocol: as §1
In the double-blind procedure, adhesions were classified according to the following grading: 0=no adhesions; I=a thin, filmy, easily separated adhesion; II=several thin adhesions; III=a thick, broad adhesion and IV=several thick adhesions. Clearly, 0 is the least severe and IV is the most severe grade.
as §2

[10] = test system: adhesions between tendon and its sheath; conditions: chickens, local treatment through a catheter; cited from earlier work

For `Oc1cc(O)c2c(c1)O[C@H](c1ccc(O)c(O)c1)[C@@H](O)C2` [cianidanol], which “number of post-surgical adhesions” value (peritoneal adhesions) is on record?
The value was “decrease”.

And the toxicity [1]?
Its toxicity is “toxic”.

With dextran as the molecule, how does the adhesive prevention (adhesions) read?
The adhesive prevention was “little success”.

What does the source list for `O=C(CC1NCCCC1O)Cn1cnc2cc(Br)c(Cl)cc2c1=O` (centres unmarked) [Halofuginone]?
alkaline phosphatase activity (alkaline phosphatase): substantially no alkaline phosphatase activity; damage to the villi (collagen type I [2]): much less damage; collagen α1(I) gene expression (collagen type I [2]; FIG. 2C): low levels; collagen type I content (collagen type I [2]; FIG. 2F): low level; reduction in weight gain [3]: more pronounced; collagen content of the wound (skin wound [4]; irradiated (18 Gy) mouse, FIG. 4H): significantly lowered; wound healing (skin wound [4]; irradiated and non-irradiated mice): healed; wound strength (skin wound [5]): did not reduce wound strength; Adhesion Score (abdominal adhesions [6]; Group 2: rats with surgery, Halofuginone i.p. 1 ug per 25 g body weight daily for 21 days, one rat per row): 0 (3×) and 0-1 and 2; number and severity of adhesions (abdominal adhesions [6]; Halofuginone-treated (i.p.) compared to non-treated rats after surgery): sharply reduced; weight gain [7]: substantially similar; inhibition of synthesis of collagen type I versus other collagens (α2(I), type II, type III, type X) (collagen type I [8]): only inhibits the synthesis of collagen type I; Adhesion (abdominal adhesions [9]; Group 2: rats with surgery, Halofuginone 5 mg/kg dry feed from 4 days before to 21 days after surgery): 0-1 (3×) and 1 (3×) and 1-2 (2×) and 0 (2×); Adhesion (abdominal adhesions [9]; Group 3: rats without surgery, Halofuginone 5 mg/kg dry feed): 0; number of rats with an adhesion (abdominal adhesions [9]; Halofuginone in diet, rats with surgery, compared to untreated operated rats): smaller number; prevention of adhesions between tendon and sheath [10]: effective

Which “reduction of the number of peritoneal adhesions after surgery” value (peritoneal adhesions; effect ascribed to an anti-microbial effect) does the source give for povidone-iodine here?
Its value is 35%.
